The source of these data is US10792324B2, “Compositions and methods for the treatment of orthopedic ailments” (K.L.R.M., LLC, priority 2016, dated 2020).

The test system of experiment [1] is femur fracture. The experiment in a line: Biomechanical evaluation (torsion to failure) of healing femur fracture. In kind it is in vivo, rat. As to the method: As briefly mentioned above, efficacy of the present nutraceutical composition was tested. Fifty-eight male Sprague-Dawley rats (10 weeks old, body weight (BW): 344±11 g) were used for this study, which was approved by the Institutional Animal Care and Use Committee of the Charles R. Drew University of Medicine and Science. The rats were housed for one week prior to experimental procedures to permit acclimatization and then randomly assigned to three groups. The control group (n=19 rats) received 0.2 ml of vehicle composed of 10% dimethyl sulfoxide (DMSO), peanut butter and water by retro-lingual administration. The tadalafil group (n=20 rats) was given a daily oral dose of 2.0 mg/kg body weight (BW) of the PDE5 inhibitor, tadalafil (Eli Lilly, Indianapolis, Ind.), mixed with vehicle. […] The COMB-4 group (Naturex, […]=19 rats), that is, the group receiving the nutraceutical composition in accordance with the present invention, received a combination of Muira puama (45 mg/kg body weight BW), Paullinia cupana (45 mg/kg BW), ginger (45 mg/kg BW) and L-citrulline (133 mg/kg BW) dissolved in vehicle. The appropriate rat dose of each of the four components of COMB-4 was calculated based on the equivalent recommended human daily dose as previously reported. See International Patent Publication Number WO 2012/067745 A 1 for more details on the ingredients in COMB-4, ranges of ingredients, and the beneficial effects thereof in treating Erectile Dysfunction and cardiovascular disease. All animals received the vehicle only for the three days prior to surgery to get the animals adapted to the taste, and began receiving either their respectively assigned control or experimental daily dose of tadalafil or COMB-4 on the same day right after the fracture (day 0). All surgeries were performed by one orthopedic surgeon who was blinded to the rats' experimental assignment. Anesthesia was induced with 3% isoflurane and maintained with 2.5% isoflurane throughout the surgery. All rats received subcutaneous injections of buprenorphine 0.05 mg/kg body weight for pre- and post-operative pain control. Each rat then underwent a unilateral femur fracture with internal fixation. […] The underlying fascia was incised at the medial patellar tendon border and the patella was dislocated laterally. The trochlea was opened with a 1.0 mm drill bit and the intramedullary canal and greater trochanter were […] 21-3 gauge hypodermic needle. The intramedullary canal was sequentially […] 18-gauge needle, and the epicondyle was further opened with a 16-gauge needle. The femoral shaft was accessed by sweeping the vastus medialis laterally. A cat claw scissors (Petco, San Diego, Calif.) placed at the junction of the middle and distal one-third of the femoral shaft was used to make a transverse fracture. A randomizer table was used to determine laterality of the osteotomy. While maintaining control of both fracture fragments, a titanium compression intramedullary screw ([…], Davos, Switzerland) was applied in a retrograde manner while directly visualizing the fracture reduction. […] The fascia and skin were closed in two layers utilizing 4-0 Vicryl (Ethicon Inc., Somerville, N.J.) and VetBond skin glue (3M, St. Paul, Minn.). […] Unprotected weight bearing was permitted immediately postoperatively, and on day 14, 5 rats from each group were euthanized using inhalational CO2 and femora were harvested for qCT (quantitative computerized tomography) and histological evaluation. […]

Experiment [2] concerns femur fracture. The experiment in a line: Callus development analysis via qCT after femur fracture. In kind it is in vivo, rat. The note with it: osteotomy site. The procedure: As briefly mentioned above, efficacy of the present nutraceutical composition was tested. Fifty-eight male Sprague-Dawley rats (10 weeks old, body weight (BW): 344±11 g) were used for this study, which was approved by the Institutional Animal Care and Use Committee of the Charles R. Drew University of Medicine and Science. The rats were housed for one week prior to experimental procedures to permit acclimatization and then randomly assigned to three groups. The control group (n=19 rats) received 0.2 ml of vehicle composed of 10% dimethyl sulfoxide (DMSO), peanut butter and water by retro-lingual administration. The tadalafil group (n=20 rats) was given a daily oral dose of 2.0 mg/kg body weight (BW) of the PDE5 inhibitor, tadalafil (Eli Lilly, Indianapolis, Ind.), mixed with vehicle. […] The COMB-4 group (Naturex, […]=19 rats), that is, the group receiving the nutraceutical composition in accordance with the present invention, received a combination of Muira puama (45 mg/kg body weight BW), Paullinia cupana (45 mg/kg BW), ginger (45 mg/kg BW) and L-citrulline (133 mg/kg BW) dissolved in vehicle. The appropriate rat dose of each of the four components of COMB-4 was calculated based on the equivalent recommended human daily dose as previously reported. See International Patent Publication Number WO 2012/067745 A 1 for more details on the ingredients in COMB-4, ranges of ingredients, and the beneficial effects thereof in treating Erectile Dysfunction and cardiovascular disease. All animals received the vehicle only for the three days prior to surgery to get the animals adapted to the taste, and began receiving either their respectively assigned control or experimental daily dose of tadalafil or COMB-4 on the same day right after the fracture (day 0). All surgeries were performed by one orthopedic surgeon who was blinded to the rats' experimental assignment. Anesthesia was induced with 3% isoflurane and maintained with 2.5% isoflurane throughout the surgery. All rats received subcutaneous injections of buprenorphine 0.05 mg/kg body weight for pre- and post-operative pain control. Each rat then underwent a unilateral femur fracture with internal fixation. […] The underlying fascia was incised at the medial patellar tendon border and the patella was dislocated laterally. The trochlea was opened with a 1.0 mm drill bit and the intramedullary canal and greater trochanter were […] 21-3 gauge hypodermic needle. The intramedullary canal was sequentially […] 18-gauge needle, and the epicondyle was further opened with a 16-gauge needle. The femoral shaft was accessed by sweeping the vastus medialis laterally. A cat claw scissors (Petco, San Diego, Calif.) placed at the junction of the middle and distal one-third of the femoral shaft was used to make a transverse fracture. A randomizer table was used to determine laterality of the osteotomy. While maintaining control of both fracture fragments, a titanium compression intramedullary screw ([…], Davos, Switzerland) was applied in a retrograde manner while directly visualizing the fracture reduction. […] The fascia and skin were closed in two layers utilizing 4-0 Vicryl (Ethicon Inc., Somerville, N.J.) and VetBond skin glue (3M, St. Paul, Minn.). A small amount of triple antibiotic ointment ([…].) was applied to the skin. Range of motion at the hip and knee was performed to ensure there was no penetration of the screw proximally and that the patella was adequately tracking. Unprotected weight bearing was permitted immediately postoperatively, and on day 14, 5 rats from each group were euthanized using inhalational CO2 and femora were harvested for qCT (quantitative computerized tomography) and histological evaluation. On day 42, fifteen (15) rats from each group were euthanized for qCT and histological evaluation. The remaining rats were euthanized for biomechanical testing. Mineral Content and Callus Volume. […]

[3] abbreviates: day 42, relative to control group.
Setting [4] is: day 42, torsion test, mean ± S.D.
The mark [5] stands for this setting: Newly formed Total Callus (>299 mg/cm^3), Day 14, mean ± S.D.
[6] abbreviates: Newly formed Total Callus (>299 mg/cm^3), Day 42, mean ± S.D.
[7] abbreviates: Newly formed Total Callus (>500 mg/cm^3), Day 14, mean ± S.D.
Setting [8] is: Newly formed Total Callus (>500 mg/cm^3), Day 42, mean ± S.D.

Take `CN1CC(=O)N2[C@H](c3ccc4c(c3)OCO4)c3[nH]c4ccccc4c3C[C@@H]2C1=O` [Tadalafil, tadalafil]: in the experiment on femur fracture [1] (setting [3]), the “higher maximum strength (maximum torque) than control group” value came out at 15%. Further, in the experiment with femur fracture [1] (setting [3]), the “higher stiffness than control group” value is 28%. Moreover, the “Maximum Torque” value in the experiment with femur fracture [1] (setting [4]) was determined as 326.8 ± 138.0 Nmm. The “Torsional Stiffness” value in the experiment with femur fracture [1] (setting [4]) amounted to 59.9 ± 31.1 Nmm/Deg. Besides, the “Fracture Repair Stage (I, II, III or IV)” value in the experiment with femur fracture [1] (day 42, torsion test, mean ± S.D., I = 1, II = 2, III = 3, IV = 4) came out at 2.4 ± 0.5. The “Bone Density” value with femur fracture [2] (setting [5]) was 458.4 ± 29.2 mg/mL; in the experiment with femur fracture [2] (setting [6]), 510.0 ± 18.9 mg/mL; with femur fracture [2] (Newly formed Total Callus, Day 14, mean ± S.D.), 665.0 ± 2.0 mg/mL; with femur fracture [2] (Newly formed Total Callus, Day 42, mean ± S.D.) it was 697.2 ± 12.4 mg/mL. Further, the “Callus Volume” value amounted to 44.9 ± 11.7 mm^3 in the experiment with femur fracture [2] (setting [5]), 66.3 ± 22.3 mm^3 with femur fracture [2] (setting [6]), 16.4 ± 4.7 mm^3 in the experiment on femur fracture [2] (setting [7]) and 35.6 ± 12.6 mm^3 in the experiment on femur fracture [2] (setting [8]). In addition, the “Mineral Content” value with femur fracture [2] (setting [5]) was 20.8 ± 6.3 mg; in the experiment with femur fracture [2] (setting [6]), 34.1 ± 12.7 mg; in the experiment with femur fracture [2] (setting [7]), 11.0 ± 3.8 mg; with femur fracture [2] (setting [8]) it was 24.1 ± 8.3 mg.
